Source: patent US20230044257A1, “COMPOSITIONS AND METHODS FOR ENHANCED UPTAKE OF ACTIVE INGREDIENTS FOR ANIMAL HEALTH AND NUTRITION” (AgroSpheres, Inc., priority 2019, published 2023)

Assays:
E. coli = details: cited from earlier work
[1] = Auto-oxidative degradation of essential oils under UV and Vis light; assay type: physicochemical; details: after 7 days under UV and Vis light
Experimental: (§1) AgriCell-encapsulated EOs (200 mg/mL of EO loaded with 200 mg/mL of AgriCell) were diluted 1:10 in deionized water (total volume 1000 μL, 14 replicates for each EO) and the solutions were left under UV radiation for a total period of 7 days. One replicate of each EO per treatment was collected daily and tested for EO content by UV-Vis spectroscopy as described in Example 2. Results were reported as concentration of EO as function of time for each stability condition.

[2] = Thermal degradation of essential oils at 40° C.; assay type: physicochemical; details: day 7 at 40° C., diluted 1:10 in deionized water
Experimental: as §1, with “at 40° C.” for “under UV radiation”, “content.” for “content by UV-Vis spectroscopy as described in Example 2.”

[3] = Encapsulation (loading) efficacy of essential oils / active ingredients into AgriCell; assay type: physicochemical
Experimental: After AgriCells are purified, the concentrated AgriCell paste or dry lyophilized powder is loaded with EOs. If dry, the AgriCells are first homogenized into a finer powder through mechanical homogenization. A stock solution from each EO is prepared in ethanol at 100 mg/mL-200 mg/mL. Lyophilized AgriCells would then be suspended in a solution with the EO solution at a ratio of 1 g of dry AgriCells to 10 mL of EO solution. Once resuspended, the ethanol is allowed to evaporate overnight, leaving behind EO encapsulated AgriCells in the process. After this overnight period, encapsulated AgriCells are removed from the beaker, and the EO-encapsulated AgriCell powder is mechanically homogenized. This encapsulated product is ready for resuspension in its appropriate medium. Loading efficacy was measured and/or calculated as percentage of EO loaded into AgriCell after extraction with ethanol 100% v/v and quantification by UV-Vis spectroscopy. Eugenol and thymol were quantified at 280 nm, whereas pyrethrum was quantified at 230 nm against its respective calibration standard curve. Also, Genistein was quantified at […], whereas eugenol was quantified at 280 nm against its respective calibration standard curve.

[4] = tested on: Pseudomonas aeruginosa ATCC 15442; experiment: Zone of inhibition test (Kirby-Bauer); assay type: cell-based; details: ATCC15442, read-out: growth inhibition compared to positive control (Vancomycin 30 μg/mL)
Experimental: (§2) In this example, the zone of inhibition test, also called a Kirby-Bauer Test, was conducted to measure antibiotic resistance of eugenol encapsulated into AgriCell. Approximately 1×10^8 cells from a selected bacterial strain (Escherichia coli ATCC 25922 and Pseudomonas aeruginosa ATCC 15442) were spread over an agar plate using a sterile swab, then incubated in the presence of the antimicrobial agent (adsorbed over a paper disc). If the bacterial strain is susceptible to the antimicrobial agent, then a zone of inhibition appears on the agar plate, whereas if the selected bacterial strain is resistant to the antimicrobial agent, then no zone is evident.

[5] = tested on: Escherichia coli ATCC 25922; experiment: Zone of inhibition test (Kirby-Bauer); assay type: cell-based; details: ATCC25922, read-out: growth inhibition compared to positive control (Vancomycin 30 μg/mL)
Experimental: as §2

E. coli strain ATCC 8739 = experiment: Bacterial agglutination (transmittance at 450 nm); assay type: cell-based; details: 300 μg/mL
Experimental: E. coli strain ATCC 8739 (which causes disease outside of the intestinal tract and its highly virulent in chickens) from a frozen stock was cultured in tryptose broth (10 g of tryptose, 2.5 g of sodium chloride, 0.5 g of dextrose, and 0.0025 g of thiamin hydrochloride in 500 mL of deionized water) at 37° C. for 48 hours. After incubation, 1 mL of E. coli cultures were taken from the surface of the broth and used to inoculate new broths that were incubated at 37° C. for 24 hours. After 24 hours, the bacterial cultures were centrifuged at 1800 g for 10 minutes to obtain bacterial pellets. The pellets were washed twice with 1x PBS+Ca^2+/Mg^2+ and then resuspended in 1 mL of PBS+Ca^2+/Mg^2+ to obtain the bacterial stock solutions. The optical density of the suspension was measure at 600 nm and bacterial cell densities (CFU/mL) were calculated using previously established bacterial growth curves for each strain of bacteria. […] The final concentration of each cuvette was 300 μg/mL of genistein equivalent and 5.0×10^8 CFU/mL in a total volume of 1 mL. The cuvettes were mixed via trituration and placed on an UV-Visible spectrophotometer equipped with an eight-position cuvette holder. The percent transmittance of light at 450 nm was measured every 1 min for 240 min. […] After 240 min, the area under the curve was calculated from the generated transmittance calibration curves.

H. pylori = details: 2 mg/L; cited from earlier work
[6] = HEL release from AgriCell in PBS; assay type: physicochemical; details: PBS pH 7.3, 37° C.
Experimental: Samples were incubated at 37° C. under mild shaking. After 15, 30, 45, 60, 90, 120, 180, and 240 minutes, the tubes were given a spin-off and samples of 250 μL of the supernatant were taken. These samples were replaced by PBS (pH 7.3). The non-encapsulated HEL in PBS was determined with the Lowry protein assay and AgriCell-encapsulated HEL was determined by arithmetic differential calculation.

[7] = tested on: 3A9 T-cell hybridomas cocultured with mouse peritoneal macrophages; experiment: IL-2 expression in 3A9 T-cell hybridomas cocultured with macrophages (ELISA); assay type: cell-based; details: 10 mg/mL
Experimental: Mouse peritoneal macrophages were resuspended in media and plated in 24-well cell-culture plates at a concentration of 1×10^8 cells/well. After 3 hours, the macrophages were attached and washed with DMEM media until cells other than macrophages were removed. Supplemented media (DMEM, 10% FBS, 2 mM of L-alanyl-L-glutamine, 100 U/mL of media penicillin and 100 U/mL of media streptomycin) was added and the macrophages were incubated overnight at 37° C. and 5% CO2. The 3A9 T-cell hybridomas were maintained in DMEM supplemented with 10% FBS, 50 μg of gentamycin/mL media, 2 mM of L-alanyl-L-glutamine, 10 mM of HEPES buffer, 55 μM of 2-mercaptoethanol, and 1× non-essential amino acids. For experiments, media was removed from the macrophages and rinsed once with PBS. […] The media was removed, and cells washed once with PBS. The T-cell hybridomas (concentration equals 2× the number of macrophages) in 3A9 media (without phenol red) were added to the macrophages and incubated for 24 hours. Media was removed, placed in microfuge tubes, centrifuged for 4 minutes at 15,000×g, and IL-2 was measured by an ELISA kit (555148, BD Biosciences). Data were expressed as pg of IL-2/mL media.

[8] = AI 100 mg/mL encapsulated into AgriCell (FIG. 4B)
[9] = EO 200 mg/mL encapsulated into AgriCell (FIG. 4A)

| Molecule | autoxidatively degraded (degradation rates) [1] [%] | existence (remained/not damaged) [1] [%] | percentages of degradation [2] [%] | encapsulation efficacy [3, 8] [%] | encapsulation efficacy [3, 9] [%] | further results |
| --- | --- | --- | --- | --- | --- | --- |
| CC(C)=CCCC(C)=CC=O [citral] | – | – | – | – | – | concentration in growth media that reduced the concentration of E. coli (E. coli): more than 0.01%; concentration with bactericidal effect (E. coli): 0.08% |
| C=CCc1ccc(O)c(OC)c1 [eugenol] | 82.7 | 17.3 | 17.3 | 91.1 | 95.5 | inhibition at 200 µg/mL [4]: < 60%; inhibition at 200 µg/mL [5]: < 80% |
| O=c1c(-c2ccc(O)cc2)coc2cc(O)cc(O)c12 [genistein] | – | – | – | 83.6 | – | lag phase of agglutination curve (E. coli strain ATCC 8739): about 25 minutes |
| CC(C)=CCC/C(C)=C/CO [geraniol] | – | – | – | – | – | growth of H. pylori in vitro (H. pylori): inhibited the growth |
| Cc1ccc(C(C)C)c(O)c1 [thymol] | 55.8 | 44.2 | 20.9 | – | 91.8 | – |
| HEL: hen egg-white lysozyme, model protein antigen, 14.7 kDa | – | – | – | – | – | HEL released, initial burst stage ([6]; 15 minutes): 89.2%; HEL released ([6]; 240 minutes): 100.1%; preincubation time to maximum IL-2 expression [7]: > 10 h |
